# Measurements taken from US10821115B2, “Compounds that inhibit Mcl-1 protein” (priority 2017, dated 2020).
# Where two headings read alike, the source gives them in different places.
# How the values were obtained:
# [1] = target: recombinant human Mcl-1 (residues 171-327) / Bim interaction (Homo sapiens (Human), UniProt Q07820); experiment: biochemical; type: binding; settings: read-out: Mcl-1 HTRF IC50
# [2] = test system: human multiple myeloma cell line, OPM-2; experiment: Cell viability assay (OPM-2 10 FBS), CellTiter-Glo; type: cell-based
# Method in brief: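 Cells were seeded at 3000 cells/well in RPMI 1640 with 10% FBS and exposed to serially diluted compounds for 16 h at 37 °C, 5% CO2.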
# [3] = 0.1 nM Mcl-1(171-327), 0.05 nM biotin-Bim (51-76)
# [4] = Homo sapiens, OPM-2, 16 h, read-out: OPM-2 10% FBS IC50 IP, OPM-2 cells, 10% FBS, 16 h incubation
# [5] = TR-FRET, Mcl-1(171-327) / biotin-Bim (51-76)
# [6] = read-out: OPM-2 10% FBS IC50 IP, OPM-2 cells, 10% FBS, 16 h, CellTiter-Glo
# [7] = Homo sapiens, OPM-2, 16 h, read-out: OPM-2 10% FBS IC50 IP, OPM-2 cells, 10% FBS, 16 h, CellTiter-Glo
# Chain of recombinant human Mcl-1 (residues 171-327) / Bim interaction (Q07820 171-327): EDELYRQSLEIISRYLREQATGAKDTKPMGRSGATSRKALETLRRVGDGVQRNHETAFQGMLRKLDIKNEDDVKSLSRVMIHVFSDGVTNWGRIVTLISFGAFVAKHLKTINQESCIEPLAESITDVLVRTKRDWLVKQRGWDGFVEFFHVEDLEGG
SMILES,"IC50 [1, 3]","IC50 [2, 4]","IC50 [1, 5]",further results
"COCC[C@H]1[C@@H](C)C/C=C/[C@](CN2CCN3CCOC[C@@H]3C2)(OC)[C@@H]2CC[C@H]2CN2C[C@@]3(CCCc4cc(Cl)ccc43)COc3ccc(nc32)C(=O)NS1(=O)=O [Example 22, (1S,3′R,6′R,7′S,8′E,11′S,12′S)-6-chloro-7′-((9aS)-hexahydropyrazino[2,1-c][1,4]oxazin-8(1H)-ylmethyl)-7′-methoxy-12′-(2-methoxyethyl)-11′-methyl-3,4-dihydro-2H,15′H-spiro[naphthalene-1,22′-[20]oxa[13]thia[1,14,25]triazatetracyclo [14.7.2.0~3,6~.0~19,24~]pentacosa[8,16,18,24]tetraen]-15′-one 13′,13′-dioxide]",0.669 nM,2230 nM,–,–
"C[C@@H]1[C@@H](C)CCC[C@@](O)(Cc2ccncn2)[C@@H]2CC[C@H]2CN2C[C@@]3(CCCc4cc(Cl)ccc43)COc3ccc(cc32)C(=O)NS1(=O)=O [Example 100113, (1S,3′R,6′R,7′R,11′S,12′R)-6-chloro-7′-hydroxy-11′,12′-dimethyl-7′-(4-pyrimidinylmethyl)-3,4-dihydro-2H,15′H-spiro[naphthalene-1,22′-[20]oxa[13]thia[1,14]diazatetracyclo [14.7.2.0~3,6~.0~19,24~]pentacosa[16,18,24]trien]-15′-one 13′,13′-dioxide]",–,–,0.182 nM,"IC50 [2, 6]: 70 nM"
"CO[C@]1(CN2CC(N3CCOCC3)C2)/C=C/C[C@H](C)[C@@H](C)S(=O)(=O)NC(=O)c2ccc3c(c2)N(C[C@@H]2CC[C@H]21)C[C@@]1(CCCc2cc(Cl)ccc21)CO3 [Example 84, (1S,3′R,6′R,7′R,8′E,11′S,12′R)-6-chloro-7′-methoxy-11′,12′-dimethyl-7′-((3-(4-morpholinyl)-1-azetidinyl)methyl)-3,4-dihydro-2H,15′H-spiro[naphthalene-1,22′-[20]oxa[13]thia[1,14]diazatetracyclo [14.7.2.0~3,6~.0~19,24~]pentacosa[8,16,18,24]tetraen]-15′-one 13′,13′-dioxide]",0.106 nM,61 nM,–,–
"C[C@@H]1[C@@H](C)C/C=C/[C@@](O)(C2CC2)[C@@H]2CC[C@H]2CN2C[C@@]3(CCCc4cc(Cl)ccc43)COc3ccc(cc32)C(=O)NS1(=O)=O [Example 100214, (1S,3′R,6′R,7′S,8′E,11′S,12′R)-6-chloro-7′-cyclopropyl-7′-hydroxy-11′,12′-dimethyl-3,4-dihydro-2H,15′H-spiro[naphthalene-1,22′-[20]oxa[13]thia[1,14]diazatetracyclo [14.7.2.0~3,6~.0~19,24~]pentacosa[8,16,18,24]tetraen]-15′-one 13′,13′-dioxide]",–,–,0.143 nM,"IC50 [2, 7]: 95 nM"
"CCOC[C@@]1(O)CCC[C@H](C)[C@@H](C)S(=O)(=O)NC(=O)c2ccc3c(c2)N(C[C@@H]2CC[C@H]21)C[C@@]1(CCCc2cc(Cl)ccc21)CO3 [Example 100190, (1S,3′R,6′R,7′R,11′S,12′R)-6-chloro-7′-(ethoxymethyl)-7′-hydroxy-11′,12′-dimethyl-3,4-dihydro-2H,15′H-spiro[naphthalene-1,22′-[20]oxa[13]thia[1,14]diazatetracyclo [14.7.2.0~3,6~.0~19,24~]pentacosa[16,18,24]trien]-15′-one 13′,13′-dioxide]",–,–,4.79 nM,"IC50 [2, 7]: 2480 nM"
"C[C@@H]1[C@@H](C)CCC[C@@](O)(CS(=O)(=O)N(C)C)[C@@H]2CC[C@H]2CN2C[C@@]3(CCCc4cc(Cl)ccc43)COc3ccc(cc32)C(=O)NS1(=O)=O [Example 100099, 1-((1S,3′R,6′R,7′S,11′S,12′R)-6-chloro-7′-hydroxy-11′,12′-dimethyl-13′,13′-dioxido-15′-oxo-3,4-dihydro-2H-spiro[naphthalene-1,22′-[20]oxa[13]thia[1,14]diazatetracyclo [14.7.2.0~3,6~.0~19,24~]pentacosa[16,18,24]trien]-7′-yl)-N,N-dimethylmethanesulfonamide]",–,–,–,"IC50 [1]: 0.659 nM; IC50 [2, 6]: 349 nM"
"CO[C@]1(CN2CCCCC2)/C=C/C[C@H](C)[C@@H](C)S(=O)(=O)NC(=O)c2ccc3c(c2)N(C[C@@H]2CC[C@H]21)C[C@@]1(CCCc2cc(Cl)ccc21)CO3 [Example 74, (1S,3′R,6′R,7′R,8′E,11′S,12′R)-6-chloro-7′-methoxy-11′,12′-dimethyl-7′-(1-piperidinylmethyl)-3,4-dihydro-2H,15′H-spiro[naphthalene-1,22′-[20]oxa[13]thia[1,14]diazatetracyclo [14.7.2.0~3,6~.0~19,24~]pentacosa[8,16,18,24]tetraen]-15′-one 13′,13′-dioxide]",2.29 nM,3360 nM,–,–
"CO[C@@]1(C2SCCCS2)/C=C/C[C@H](C)[C@@H](C)S(=O)(=O)NC(=O)c2ccc3c(c2)N(C[C@@H]2CC[C@H]21)C[C@@]1(CCCc2cc(Cl)ccc21)CO3 [Example 100261, (1S,3′R,6′R,7′S,8′E,11′S,12′R)-6-chloro-7′-(1,3-dithian-2-yl)-7′-methoxy-11′,12′-dimethyl-3,4-dihydro-2H,15′H-spiro[naphthalene-1,22′-[20]oxa[13]thia[1,14]diazatetracyclo [14.7.2.0~3,6~.0~19,24~]pentacosa[8,16,18,24]tetraen]-15′-one 13′,13′-dioxide]",–,–,1.22 nM,"IC50 [2, 7]: 533 nM"
"Cc1cc(C[C@]2(O)/C=C/C[C@H](C)[C@@H](C)S(=O)(=O)NC(=O)c3ccc4c(c3)N(C[C@@H]3CC[C@H]32)C[C@@]2(CCCc3cc(Cl)ccc32)CO4)no1 [Example 100541, (1S,3′R,6′R,7′S,8′E,11′S,12′R)-6-chloro-7′-hydroxy-11′,12′-dimethyl-7′-((5-methyl-1,2-oxazol-3-yl)methyl)-3,4-dihydro-2H,15′H-spiro[naphthalene-1,22′-[20]oxa[13]thia[1,14]diazatetracyclo [14.7.2.0~3,6~.0~19,24~]pentacosa[8,16,18,24]tetraen]-15′-one 13′,13′-dioxide]",–,–,0.76 nM,"IC50 [2, 7]: 826 nM"
"CO[C@@]1(CN2CCc3ccccc3C2)/C=C/C[C@H](C)[C@@H](C)S(=O)(=O)NC(=O)c2ccc3c(c2)N(C[C@@H]2CC[C@H]21)C[C@@]1(CCCc2cc(Cl)ccc21)CO3 [Example 148, (1S,3′R,6′R,7′S,8′E,11′S,12′R)-6-chloro-7′-(3,4-dihydro-2(1H)-isoquinolinylmethyl)-7′-methoxy-11′,12′-dimethyl-3,4-dihydro-2H,15′H-spiro[naphthalene-1,22′-[20]oxa[13]thia[1,14]diazatetracyclo [14.7.2.0~3,6~.0~19,24~]pentacosa[8,16,18,24]tetraen]-15′-one 13′,13′-dioxide]",1.2 nM,1610 nM,–,–
"CC#C[C@]1(O)CCC[C@H](C)[C@@H](C)S(=O)(=O)NC(=O)c2ccc3c(c2)N(C[C@@H]2CC[C@H]21)C[C@@]1(CCCc2cc(Cl)ccc21)CO3 [Example 100267, (1S,3′R,6′R,7′S,11′S,12′R)-6-chloro-7′-hydroxy-11′,12′-dimethyl-7′-(1-propyn-1-yl)-3,4-dihydro-2H,15′H-spiro[naphthalene-1,22′-[20]oxa[13]thia[1,14]diazatetracyclo [14.7.2.0~3,6~.0~19,24~]pentacosa[16,18,24]trien]-15′-one 13′,13′-dioxide]",–,–,–,"IC50 [1]: 0.166 nM; IC50 [2, 6]: 274 nM"
"CO[C@@]1(CN2CCn3nncc3C2)/C=C/C[C@H](C)[C@@H](C)S(=O)(=O)NC(=O)c2ccc3c(c2)N(C[C@@H]2CC[C@H]21)C[C@@]1(CCCc2cc(Cl)ccc21)CO3 [Example 207, (1S,3′R,6′R,7′S,8′E,11′S,12′R)-6-chloro-7′-(6,7-dihydro[1,2,3]triazolo[1,5-a]pyrazin-5(4H)-ylmethyl)-7′-methoxy-11′,12′-dimethyl-3,4-dihydro-2H,15′H-spiro[naphthalene-1,22′-[20]oxa[13]thia[1,14]diazatetracyclo [14.7.2.0~3,6~.0~19,24~]pentacosa[8,16,18,24]tetraen]-15′-one 13′,13′-dioxide]",0.137 nM,395 nM,–,–
"CO[C@@]1(CN2CCN3CCCC[C@@H]3C2)/C=C/C[C@H](C)[C@@H](CC2CCC2)S(=O)(=O)NC(=O)c2ccc3c(c2)N(C[C@@H]2CC[C@H]21)C[C@@]1(CCCc2cc(Cl)ccc21)CO3 [Example 41, (1S,3′R,6′R,7′S,8′E,11′S,12′R)-6-chloro-12′-(cyclobutylmethyl)-7′-methoxy-11′-methyl-7′-((9aR)-octahydro-2H-pyrido[1,2-a]pyrazin-2-ylmethyl)-3,4-dihydro-2H,15′H-spiro[naphthalene-1,22′-[20]oxa[13]thia[1,14]diazatetracyclo [14.7.2.0~3,6~.0~19,24~]pentacosa[8,16,18,24]tetraen]-15′-one 13′,13′-dioxide]",0.642 nM,810 nM,–,–
"C[C@@H]1[C@@H](C)C/C=C/[C@@](O)(C#CCO)[C@@H]2CC[C@H]2CN2C[C@@]3(CCCc4cc(Cl)ccc43)COc3ccc(cc32)C(=O)NS1(=O)=O [Example 100395, (1S,3′R,6′R,7′S,8′E,11′S,12′R)-6-chloro-7′-hydroxy-7′-(3-hydroxy-1-propyn-1-yl)-11′,12′-dimethyl-3,4-dihydro-2H,15′H-spiro[naphthalene-1,22′-[20]oxa[13]thia[1,14]diazatetracyclo [14.7.2.0~3,6~.0~19,24~]pentacosa[8,16,18,24]tetraen]-15′-one 13′,13′-dioxide]",–,–,0.056 nM,"IC50 [2, 6]: 40 nM"
